# Source: ChEMBL document CHEMBL4831520, “Discovery of First-in-Class Dual PARP and EZH2 Inhibitors for Triple-Negative Breast Cancer with Wild-Type BRCA” (J Med Chem, 2021)
# Legend:
# [1] = tested on: MDA-MB-231; assay: cells; format: functional, cell-based; conditions: Homo sapiens, MDA-MB-231, 72 h
# Description: Antiproliferative activity against human MDA-MB-231 cells assessed as cell viability after 72 hrs by MTT assay
# [2] = tested on: MDA-MB-468; assay: cells; format: functional, cell-based; conditions: Homo sapiens, MDA-MB-468, 72 h
# Description: Antiproliferative activity against human MDA-MB-468 cells assessed as cell viability after 72 hrs by MTT assay
# [3] = tested on: MCF7; assay: cells; format: functional, cell-based; conditions: Homo sapiens, MCF7, 72 h
# Description: Antiproliferative activity against human MCF7 cells assessed as cell viability after 72 hrs by MTT assay
# [4] = tested on: MCF-10A; assay: cells; format: ADME, cell-based; conditions: Homo sapiens, 72 h
# Description: Antiproliferative activity against human MCF-10A cells assessed as cell viability after 72 hrs by MTT assay
# [5] = biological target: T1, Histone-lysine N-methyltransferase EZH2 (Homo sapiens, UniProt Q15910)
# Target sequence in this assay (Q15910 whole entry): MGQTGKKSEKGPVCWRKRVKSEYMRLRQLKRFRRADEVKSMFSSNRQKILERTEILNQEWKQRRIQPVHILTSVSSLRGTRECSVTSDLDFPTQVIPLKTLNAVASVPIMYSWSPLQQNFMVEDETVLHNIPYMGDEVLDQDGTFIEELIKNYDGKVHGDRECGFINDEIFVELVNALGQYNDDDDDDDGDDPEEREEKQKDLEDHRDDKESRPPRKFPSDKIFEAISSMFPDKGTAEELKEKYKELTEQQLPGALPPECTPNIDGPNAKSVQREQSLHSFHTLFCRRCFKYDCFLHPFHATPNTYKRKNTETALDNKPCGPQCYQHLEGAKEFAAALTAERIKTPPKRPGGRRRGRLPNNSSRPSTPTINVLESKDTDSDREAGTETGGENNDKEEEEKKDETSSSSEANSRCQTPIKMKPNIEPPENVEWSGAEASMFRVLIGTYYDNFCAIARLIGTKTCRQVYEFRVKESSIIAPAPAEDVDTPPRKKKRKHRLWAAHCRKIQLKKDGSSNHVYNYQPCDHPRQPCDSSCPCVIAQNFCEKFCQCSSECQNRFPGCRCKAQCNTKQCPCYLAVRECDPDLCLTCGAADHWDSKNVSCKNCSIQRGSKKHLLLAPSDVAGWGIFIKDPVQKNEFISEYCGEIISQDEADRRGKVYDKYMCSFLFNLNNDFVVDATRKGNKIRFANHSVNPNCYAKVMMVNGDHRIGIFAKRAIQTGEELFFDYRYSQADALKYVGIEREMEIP
# Description: Inhibition of recombinant PRC2 complex (unknown origin) assessed as dissociation rate constant using H3K27me0 peptide substrate incubated for 3 hrs by HMT assay
# [6] = biological target: T1, Histone-lysine N-methyltransferase EZH2; remark: listed apart in the source
# Target sequence in this assay (Q15910 whole entry): as above
# Description: Inhibition of recombinant PRC2 complex (unknown origin) assessed as kd/ka using H3K27me0 peptide substrate incubated for 3 hrs by HMT assay
# [7] = biological target: T1, Histone-lysine N-methyltransferase EZH2; conditions: time 3.0 hrs
# Target sequence in this assay (Q15910 whole entry, looked up): as the sequence (Q15910 whole entry) above
# [8] = biological target: T1, Histone-lysine N-methyltransferase EZH2; remark: listed apart in the source
# Target sequence in this assay (Q15910 whole entry): as above
Compound,IC50 [1],IC50 [2],IC50 [3],Kd [5],Kd [6],Ka [7],IC50 [8],IC50 [4]
Cc1cc(C)c(CNC(=O)c2ccc(C)c(-c3ccc(N4CCN(C(=O)c5cc(Cc6n[nH]c(=O)c7ccccc67)ccc5F)CC4)nc3)c2)c(=O)[nH]1,> 50 µM,28.8 µM,> 50 µM,,,,,> 50 µM
CCNc1cc(-c2ccc(N3CCN(C(=O)c4cc(Cc5n[nH]c(=O)c6ccccc56)ccc4F)CC3)nc2)cc(C(=O)NCc2c(C)cc(C)[nH]c2=O)c1C,32.3 µM,9.56 µM,> 50 µM,,,,,> 50 µM
COC1CCN(C(=O)c2cc(Cc3n[nH]c(=O)c4ccccc34)ccc2F)CC1 [AZD2461],36.9 µM,35.6 µM,> 50 µM,,,,,> 50 µM
Cc1cc(C)c(CNC(=O)c2cc(-c3ccc(N4CCN(C(=O)c5cc(Cc6n[nH]c(=O)c7ccccc67)ccc5F)CC4)nc3)cc(N)c2C)c(=O)[nH]1,1920 µM,12.1 µM,37.4 µM,,,,,> 50 µM
Cc1cc(C)c(CNC(=O)c2cc(-c3ccc(N4CCN(C(=O)c5cc(Cc6n[nH]c(=O)c7ccccc67)ccc5F)CC4)nc3)cc(C(F)(F)F)c2)c(=O)[nH]1,43.4 µM,> 50 µM,> 50 µM,,,,,> 50 µM
C=CCn1ncc2c(C(=O)NCc3c(C)cc(C)[nH]c3=O)cc(-c3ccc(N4CCN(C(=O)c5cc(Cc6n[nH]c(=O)c7ccccc67)ccc5F)CC4)nc3)cc21,> 50 µM,> 50 µM,> 50 µM,,,,,> 50 µM
Cc1cc(C)c(CNC(=O)c2cc(-c3ccc(N4CCN(C(=O)c5cc(Cc6n[nH]c(=O)c7ccccc67)ccc5F)CC4)nc3)cc([N+](=O)[O-])c2)c(=O)[nH]1,> 50 µM,> 50 µM,> 50 µM,,,,,> 50 µM
CCn1ccc2c(C(=O)NCc3c(C)cc(C)[nH]c3=O)cc(-c3ccc(N4CCN(C(=O)c5cc(Cc6n[nH]c(=O)c7ccccc67)ccc5F)CC4)nc3)cc21,> 50 µM,> 50 µM,> 50 µM,,,,,> 50 µM
Cc1cc(C(=O)NCc2c(C)cc(C)[nH]c2=O)cc(-c2ccc(N3CCN(C(=O)c4cc(Cc5n[nH]c(=O)c6ccccc56)ccc4F)CC3)nc2)c1,> 50 µM,32.5 µM,> 50 µM,,,,,> 50 µM
CCN(c1cc(-c2ccc(N3CCN(C(=O)c4cc(Cc5n[nH]c(=O)c6ccccc56)ccc4F)CC3)nc2)cc(C(=O)NCc2c(C)cc(C)[nH]c2=O)c1C)C1CCOCC1,> 50 µM,> 50 µM,> 50 µM,,,,,> 50 µM
Cc1cc(C)c(CNC(=O)c2cc(-c3ccc(N4CCN(C(=O)c5cc(Cc6n[nH]c(=O)c7ccccc67)ccc5F)CC4)nc3)cc(NC(C)C)c2C)c(=O)[nH]1,> 50 µM,16.5 µM,> 50 µM,,,,,> 50 µM
CCCC(=O)Nc1cc(-c2ccc(N3CCN(C(=O)c4cc(Cc5n[nH]c(=O)c6ccccc56)ccc4F)CC3)nc2)cc(C(=O)NCc2c(C)cc(C)[nH]c2=O)c1C,26.1 µM,3.89 µM,33.2 µM,,,,,> 50 µM
Cc1cc(C)c(CNC(=O)c2cc(-c3ccc(N4CCN(C(=O)c5cc(Cc6n[nH]c(=O)c7ccccc67)ccc5F)CC4)nc3)ccc2C)c(=O)[nH]1,30.2 µM,28.3 µM,> 50 µM,,,,,> 50 µM
Cc1cc(C)c(CNC(=O)c2cc(-c3ccc(N4CCN(C(=O)c5cc(Cc6n[nH]c(=O)c7ccccc67)ccc5F)CC4)nc3)cc3c2ccn3C(C)C)c(=O)[nH]1,33.5 µM,21.6 µM,47.5 µM,,,,,> 50 µM
Cc1cc(C)c(CNC(=O)c2cc(-c3ccc(N4CCN(C(=O)c5cc(Cc6n[nH]c(=O)c7ccccc67)ccc5F)CC4)nc3)cc3c2ccn3C)c(=O)[nH]1,> 50 µM,> 50 µM,> 50 µM,,,,,> 50 µM
Cc1cc(C)c(CNC(=O)c2cc(-c3ccc(N4CCN(C(=O)c5cc(Cc6n[nH]c(=O)c7ccccc67)ccc5F)CC4)nc3)cc3c2cnn3C)c(=O)[nH]1,> 50 µM,> 50 µM,> 50 µM,,,,,> 50 µM
Cc1cc(C)c(CNC(=O)c2cc(-c3ccc(N4CCN(C(=O)c5cc(Cc6n[nH]c(=O)c7ccccc67)ccc5F)CC4)nc3)cc3c2cnn3C(=O)N(C)C)c(=O)[nH]1,> 50 µM,> 50 µM,> 50 µM,,,,,> 50 µM
Cc1cc(C)c(CNC(=O)c2cc(-c3ccc(N4CCN(C(=O)c5cc(Cc6n[nH]c(=O)c7ccccc67)ccc5F)CC4)nc3)cc([N+](=O)[O-])c2C)c(=O)[nH]1,> 50 µM,> 50 µM,> 50 µM,,,,,> 50 µM
CNc1cc(-c2ccc(N3CCN(C(=O)c4cc(Cc5n[nH]c(=O)c6ccccc56)ccc4F)CC3)nc2)cc(C(=O)NCc2c(C)cc(C)[nH]c2=O)c1C,46 µM,17.3 µM,> 50 µM,,,,,> 50 µM

# Further compounds by falling IC50 [1], results first:
IC50 [1],IC50 [2],IC50 [3],Kd [5],Kd [6],Ka [7],IC50 [8],Compound,IC50 [4]
26.1 µM,1940 µM,44.2 µM,,,,,COc1cc(C)c(C(=O)NCc2c(C)cc(C)[nH]c2=O)cc1-c1ccc(N2CCN(C(=O)c3cc(Cc4n[nH]c(=O)c5ccccc45)ccc3F)CC2)nc1,> 50 µM
25.8 µM,17.9 µM,40.2 µM,,,,,Cc1cc(C)c(CNC(=O)c2cc(-c3ccc(N4CCN(C(=O)c5cc(Cc6n[nH]c(=O)c7ccccc67)ccc5F)CC4)nc3)cc3c2cnn3C(C)C)c(=O)[nH]1,> 50 µM
25 µM,29.7 µM,48.4 µM,,,,,Cc1cc(C)c(CNC(=O)c2cccc(-c3ccc(N4CCN(C(=O)c5cc(Cc6n[nH]c(=O)c7ccccc67)ccc5F)CC4)nc3)c2)c(=O)[nH]1,> 50 µM
23.2 µM,15.2 µM,38 µM,,,,,Cc1cc(C)c(CNC(=O)c2cc(-c3ccc(N4CCN(C(=O)c5cc(Cc6n[nH]c(=O)c7ccccc67)ccc5F)CC4)nc3)cc(N(C)C)c2C)c(=O)[nH]1,> 50 µM
22.1 µM,8.24 µM,30.4 µM,,,,,Cc1cc(C)c(CNC(=O)c2cc(-c3ccc(N4CCN(C(=O)c5cc(Cc6n[nH]c(=O)c7ccccc67)ccc5F)CC4)nc3)cc(NC(=O)CCC(=O)N(C)C)c2C)c(=O)[nH]1,> 50 µM
18.4 µM,9.56 µM,26.2 µM,,,,,CCN(C(C)=O)c1cc(-c2ccc(N3CCN(C(=O)c4cc(Cc5n[nH]c(=O)c6ccccc56)ccc4F)CC3)nc2)cc(C(=O)NCc2c(C)cc(C)[nH]c2=O)c1C,> 50 µM
17.9 µM,2.21 µM,30.1 µM,,,,,C=C(C)C(=O)Nc1cc(-c2ccc(N3CCN(C(=O)c4cc(Cc5n[nH]c(=O)c6ccccc56)ccc4F)CC3)nc2)cc(C(=O)NCc2c(C)cc(C)[nH]c2=O)c1C,> 50 µM
9.42 µM,0.76 µM,20 µM,0.1116 s⁻¹,25.46 s⁻¹,4.54 10^6/M/s,,Cc1cc(C)c(CNC(=O)c2cc(-c3ccc(N4CCN(C(=O)c5cc(Cc6n[nH]c(=O)c7ccccc67)ccc5F)CC4)nc3)cc(NC(=O)CC(C)C)c2C)c(=O)[nH]1,> 50 µM
9.26 µM,9.97 µM,19.5 µM,0.06934 s⁻¹,21.44 s⁻¹,3.23 10^6/M/s,0.0108 µM,CC[C@H](C)n1nc(C)c2c(C(=O)NCc3c(C)cc(C)[nH]c3=O)cc(-c3ccc(N4CCNCC4)nc3)cc21,> 50 µM
8.73 µM,2.78 µM,21.2 µM,0.04302 s⁻¹,38.77 s⁻¹,1.11 10^6/M/s,,C=C(C)C(=O)N(CC)c1cc(-c2ccc(N3CCN(C(=O)c4cc(Cc5n[nH]c(=O)c6ccccc56)ccc4F)CC3)nc2)cc(C(=O)NCc2c(C)cc(C)[nH]c2=O)c1C,> 50 µM
8.72 µM,0.33 µM,17.7 µM,0.09155 s⁻¹,18.37 s⁻¹,4.98 10^6/M/s,,CCC(=O)Nc1cc(-c2ccc(N3CCN(C(=O)c4cc(Cc5n[nH]c(=O)c6ccccc56)ccc4F)CC3)nc2)cc(C(=O)NCc2c(C)cc(C)[nH]c2=O)c1C,> 50 µM
2.82 µM,2.11 µM,18.2 µM,0.02027 s⁻¹,31.74 s⁻¹,6.39 10^5/M/s,,CCC(=O)N(CC)c1cc(-c2ccc(N3CCN(C(=O)c4cc(Cc5n[nH]c(=O)c6ccccc56)ccc4F)CC3)nc2)cc(C(=O)NCc2c(C)cc(C)[nH]c2=O)c1C,> 50 µM
2.63 µM,0.41 µM,12.1 µM,0.01586 s⁻¹,14.56 s⁻¹,1.09 10^6/M/s,0.0365 µM,CC(=O)Nc1cc(-c2ccc(N3CCN(C(=O)c4cc(Cc5n[nH]c(=O)c6ccccc56)ccc4F)CC3)nc2)cc(C(=O)NCc2c(C)cc(C)[nH]c2=O)c1C,> 50 µM
